{
  "source": "patent US7078169B2",
  "about": "(priority 1999, dated 2006)",
  "key": {"[1]": {"test_system": "HES1 reporter gene", "format": "cell-based, S. cerevisiae", "settings": "ABY140 (pdr5::KanMX yor1::KanMX) vs ABY11 wild-type", "procedure": "To further test the viability of this indicator gene in a high-throughput screen, the regulation of the HES1 reporter was tested in two different strain backgrounds ABY11 (MATa leu2Δ1 ura3-52) is a wild-type strain.\nThe ABY140 [HES1] strain was used to screen approximately 16,800 chemicals from a combinatorial chemistry library. […] Twenty-four of these chemical were further tested in a secondary screen for the ability to induce four additional indicator (also referred to as reporter) genes whose expression are also coordinately regulated with genes encoding ergosterol biosynthetic enzymes."}, "[2]": {"test_system": "HES1 reporter", "settings": "384-well array, various concentrations, 30° C., 24 hrs", "procedure": "Cells were grown to mid-log phase at 30° C. in casamino acids medium (0 67% yeast nitrogen base, 2% glucose, 2% casamino acids). Cell density was adjusted prior to incubation in various concentrations of drug Arrays were incubated at 30° C. for 24 hrs prior to imaging."}, "[3]": {"test_system": "yjl105w mutant strain", "experiment": "Lovastatin drug disk on yeast lawn, yjl105w mutant vs wild-type", "format": "cell-based, S. cerevisiae", "settings": "250 μg on sterile disk, 5×10^6 cells, overnight at 30° C.", "procedure": "FIG. 4. Effects of lovastatin on wild-type and YJL105w knockout yeast strains. 10 μl of a 25 mg/ml solution of lovastatin (250 μg) in ethanol was applied to a sterile drug disk on a lawn of yeast (5×10^6 cells, ABY363). The plates were incubated overnight at 30° C.\nTo test whether YJL105w has a role in isoprenoid metabolism, a yjl105w mutant where the entire ORF was replaced with the kanamycin resistance gene was constructed. Approximately 5×10^6 cells of the yjl105w mutant strain and a wild-type control strain (ABY363, MATα his3Δ1 leu2Δ0 lys2Δ0 ura3Δ0) were plated onto separate non-selective agar plates. The sterol biosynthetic inhibitor lovastatin (250 μg) was applied to a sterile disk on each lawn and the cells were allowed to grow overnight at 30° C."}},
  "data": [
    {"smiles": "Clc1ccc(COC(Cn2ccnc2)c2ccc(Cl)cc2Cl)cc1", "note": "(stereo not shown) [Econazole]", "values": [
      {"measurement": "sensitivity of HES1 reporter gene induction in ABY140 compared to ABY11", "setting": "[1]", "result": "more sensitive"},
      {"measurement": "induction of the HES1 reporter", "setting": "[2]", "result": "specifically induced"}
    ]},
    {"smiles": "Nc1[nH]c(=O)ncc1F", "note": "[Flucytosine]", "values": [
      {"measurement": "sensitivity of HES1 reporter gene induction in ABY140 compared to ABY11", "setting": "[1]", "result": "not"}
    ]},
    {"smiles": "CC[C@H](C)C(=O)O[C@H]1C[C@@H](C)C=C2C=C[C@H](C)[C@H](CC[C@@H]3C[C@@H](O)CC(=O)O3)[C@H]21", "note": "[lovastatin]", "values": [
      {"measurement": "resistance of yjl105w mutant strain to treatment relative to wild-type control (ABY363)", "setting": "[3]", "result": "significantly more resistant"}
    ]}
  ]
}
